PMC9586926, “An efflux-susceptible antibiotic-adjuvant with systemic efficacy against mouse infections” (Scientific Reports, 2022)
Values after ≈ are worked out from the molar mass of the structure shown. Where two headings read alike, the source gives them in different places. Where a SMILES comes first, the peptide text is derived from it. [ ]: non-standard residue; d: D form. The star is where a group is joined. 12Ado = NCCCCCCCCCCCC(=O)O; Decanoyl = CCCCCCCCCC(=O)*; Orn = NCCC[C@H](N)C(=O)O

Experiments:
murine RBC = assay: Hemolysis; format: cell-based; details: 1% hematocrit murine RBC, 3 h, 37 °C
Method: Permeabilization of red blood cells (RBC) was evaluated using absorbance measurements of extracellular hemoglobin. Serial twofold dilutions of lipopeptides were incubated with 1% hematocrit of murine RBC for 3 h at 37 °C with shaking. Samples were then centrifuged at 20,000 RCF for 5 min, and absorbance of the supernatants was measured at 450 nm (BioTek Instruments Synergy HT; Winooski, VT, USA). Percent hemolysis was then calculated by (AS − AN)/(AP − AN) × 100; where AS, AN, and AP represent the absorbance of the sample, negative control (PBS) and positive control (Milli-Q water), respectively. LC50 values were extracted from trend-lines generated for linear-regions of plots correlating lipopeptide concentrations and percent hemolysis.

[1] = set-up: method as in PMID 28329302; details: 40 mg/kg dose; cited from earlier work
E. coli Ag100a (ΔacrAB) [2] = details: cited from earlier work
Text: Table 2 Effect of RND pumps on growth-inhibitory activity. | column: MIC^a (µM) in LB / E. coli / Mutant

[3] = test system: S. Typhimurium 14028 (wild-type); details: cited from earlier work
Text: Table 2 Effect of RND pumps on growth-inhibitory activity. | column: MIC^a (µM) in LB / S. Typhimurium / Wild-Type

A. baumannii = assay: MIC, broth microdilution; format: cell-based, Acinetobacter baumannii; details: broth microdilution in LB, 18–24 h, 37 °C; n = 1 strain
Text: (§1) Bacteria used in this study consisted of standard American Type Culture Collection (ATCC; Biological Industries, Beit Haemek, Israel) strains, clinically isolated (CI; Sourasky Medical Center, Tel Aviv, Israel) strains, as well as isogenic mutant strains. Gram-negative bacteria included Acinetobacter baumannii ATCC 19606; Escherichia coli ATCC 25922, 35218, CFT073, CI 14384, 16327, and the isogenic pair Ag100 (wild-type) and its efflux deficient mutant Ag100a (ΔacrAB); Klebsiella pneumoniae CI 1287, 224; Pseudomonas aeruginosa ATCC 27853, CI 1278, 8634; Salmonella enterica serovar Typhimurium ATCC 14028 (wild-type) and its isogenic efflux deficient mutant ΔacrAB. Bacteria were grown in Luria–Bertani broth (LB; 5 g/l NaCl, 5 g/l yeast extract, 10 g/l tryptone; pH = 7.0) at 37 °C with shaking. Over-night cultures were diluted 10-folds into fresh growth-medium and incubated at 37 °C with shaking until reaching mid-logarithmic phase. Then, bacterial concentrations were adjusted using O.D.600 nm measurements, and bacteria were subjected to the experimental procedures listed herein.
(§2) MIC was determined according to the broth microdilution method: antimicrobials were subjected to serial twofold dilutions in LB medium, and incubated with 5 × 10^5 CFU/ml of bacteria (final volume of 200 µl) for 18–24 h at 37 °C. Then, O.D.620 nm was measured (BioTek Instruments Synergy HT; Winooski, VT, USA), and the MIC was defined as the lowest antimicrobial concentration for which no increase in O.D.620 nm was evident, compared to the untreated control.

[4] = test system: S. Typhimurium 14028ΔAcrAB; details: cited from earlier work
Text: Table 2 Effect of RND pumps on growth-inhibitory activity. | column: MIC^a (µM) in LB / S. Typhimurium / Mutant

HEK-293FT = assay: Cytotoxicity, Alamar blue; format: cell-based, human; details: 24 h incubation, read-out: IC50 HEK-293FT (50% inhibition of cells respiration)
Method: (§3) Cell lines used in this study included murine RAW 264.7 macrophages and human embryonic kidney HEK-293FT cells (ATCC, Biological Industries, Beit Haemek, Israel). Cells were grown in Dulbecco’s modified eagle medium (DMEM) containing […] glucose, L-glutamine, sodium bicarbonate and sodium pyruvate, supplemented with 10% fetal bovine serum and pen-strep, at 37 °C and 5% CO2.
(§4) Lipopeptides cytotoxicity was determined using fluorescent measurements of reduced resazurin. 2 × 10^4 cells were first cultured in 96-well plates over-night (final volume of 100 µl) at 37 °C and 5% CO2. Then, the medium was removed and cells were incubated for an additional 24 h with serial twofold dilutions of the lipopeptides in growth medium. Then, 10 µl of Alamar blue were added and plates were incubated for 3 h, after which fluorescence (excitation: 530 nm; emission: 590 nm) of the reduced resazurin was recorded (BioTek Instruments Synergy HT; Winooski, VT, USA).

P. aeruginosa = assay: MIC, broth microdilution; format: cell-based, Pseudomonas aeruginosa; details: broth microdilution in LB, 18–24 h, 37 °C; n = 3 strains
Text: as §1, §2

K. pneumoniae = assay: MIC, broth microdilution; format: cell-based, Klebsiella pneumoniae; details: broth microdilution in LB, 18–24 h, 37 °C; n = 2 strains
Text: as §1, §2

[5] = test system: E. coli Ag100 (wild-type); details: cited from earlier work
Text: Table 2 Effect of RND pumps on growth-inhibitory activity. | column: MIC^a (µM) in LB / E. coli / Wild-Type

RAW 264.7 = assay: Cytotoxicity, Alamar blue; format: cell-based, murine; details: 24 h incubation, read-out: IC50 RAW 264.7 (50% inhibition of cells respiration)
Method: as §3, §4

E. coli 25922 [6] = details: same assessment tools; cited from earlier work
Text: To our knowledge, the finding of an adjuvant whose activity is enhanced—rather than repressed—after efflux, is hitherto unreported. One might ask, at this point: If the K-, O and B-based analogs are efflux substrates (as implied by MIC data, Table 2), how come only C10BBc12B is positively affected by efflux?

E. coli = assay: MIC, broth microdilution; format: cell-based, Escherichia coli; details: broth microdilution in LB, 18–24 h, 37 °C; n = 4 strains; published data in bold (not discernible)
Text: as §1, §2

E. coli 25922 [7] = assay: Cytoplasmic membrane depolarization, DiSC3(5) fluorescence; format: cell-based, Escherichia coli; details: C10BBc12B up to 10 µM; PMB 2.5 µM
Method: Lipopeptides aptitude to depolarize the CM was evaluated using fluorescent measurements of the transmembrane potential sensitive dye 3,3′-Dipropylthiadicarbocyanine iodide (DiSC3(5))[69]. Bacteria (O.D.600 nm = 0.1) were washed by centrifugation at 10,000 RCF for 5 min, supernatant aspiration, and pellet resuspension in 5 mM HEPES containing 20 mM glucose, 50 mM KCl and 0.2 mM EDTA (pH = 7.2). This suspension was mixed with DiSC3(5) (400 µM in DMSO) to reach a final DiSC3(5) concentration of 4 µM and was incubated in the dark for 1 h at 37 °C with shaking. Then, 180 µl of this mixture were dispensed into black microtiter plates and fluorescence was recorded (excitation: 622 nm; emission: 670 nm) at 37 °C with shaking until baseline stabilization (BioTek Instruments Synergy HT; Winooski, VT, USA). Finally, 20 µl of HEPES containing serial twofold dilutions of lipopeptides were added and fluorescence was recorded for up to 30 min at the same conditions.

[8] = test system: S. Typhimurium 14028 (wild-type); assay: MIC, broth microdilution, wild-type strain; format: cell-based, Salmonella enterica serovar Typhimurium
Text: as §1
(§5) MIC was determined according to the broth microdilution method: antimicrobials were subjected to serial twofold dilutions in LB medium, and incubated with 5 × 10^5 CFU/ml of bacteria (final volume of 200 µl) for 18–24 h at 37 °C. […]

[9] = test system: S. Typhimurium 14028ΔAcrAB; assay: MIC, broth microdilution, efflux deficient mutant; format: cell-based, Salmonella enterica serovar Typhimurium
Text: as §1, §5

E. coli 25922 [10] = assay: Outer membrane permeabilization, NPN fluorescence; format: cell-based, Escherichia coli
Method: Lipopeptides ability to permeabilize the OM was evaluated using fluorescent measurements of N-phenyl-1-naphthylamine (NPN)[67]. 200 µl of an over-night culture were diluted into 10 ml of fresh LB medium and incubated at 37 °C with shaking until reaching O.D.600 nm = 0.5. The culture was then centrifuged at 10,000 RCF for 3 min, the supernatant aspirated, and the pellet resuspended in equal volume of 5 mM HEPES containing 5 mM glucose (pH = 7.2). This suspension was then mixed with NPN (5 mM in acetone) to reach a final NPN concentration of 10 µM. Then, 190 µl of this mixture were dispensed into black microtiter plates, mixed with 10 µl of HEPES containing serial twofold dilutions of lipopeptides and fluorescence (excitation: 360 nm; emission: 460 nm) was recorded immediately for up to 10 min at 37 °C with shaking[29] (BioTek Instruments Synergy HT; Winooski, VT, USA). In a modified version of this assay, in which efflux was inhibited, bacteria (similarly prepared) were incubated with the lipopeptides in presence or absence of 100 µM CCCP for 5 min. Samples were then twice centrifuged at 10,000 RCF for 3 min, the supernatant aspirated, and the pellet resuspended in equal volume of 5 mM HEPES containing 20 mM glucose (pH = 7.2), so as to re-energize the efflux machinery. NPN was then added (final concentration of 10 µM) and fluorescence was recorded immediately thereafter.

E. coli Ag100a (ΔacrAB) [11] = assay: MIC, broth microdilution, efflux deficient mutant; format: cell-based, Escherichia coli; details: Ag100a
Text: as §1, §5

[12] = test system: E. coli Ag100 (wild-type); assay: MIC, broth microdilution, wild-type strain; format: cell-based, Escherichia coli
Text: as §1, §5

E. coli 25922 [13] = details: ref 23 (C14(ɷ5)OOc10O), ref 41 (PMBN); cited from earlier work
Text: Towards better understanding the synergistic mechanism, we compared individual growth kinetics to determine contributions of each antimicrobial and assessed the type and extent of implicated membrane damages, assuming that low OM-permeability underlies the observed antibiotics inefficiencies by impeding their intracellular accumulation.

For `CCCCCCCCCC(=O)N[C@@H](CCCN)C(=O)N[C@@H](CCCN)C(=O)NCCCCCCCCCCCC(=O)N[C@@H](CCCN)C(N)=O` [C10OOc12O] (Decanoyl-[Orn][Orn][12Ado][Orn]-NH2), the “LC50 Erythrocytes (50% hemolysis)” value (murine RBC) is given as > 50 µM, the mortality [1] is given as “mortality of another mouse was recorded within an hour” and the “MIC (µM) in LB, E. coli Mutant” value (E. coli Ag100a (ΔacrAB) [2]) is given as 6.2 µM (≈ 4.41 µg/mL). The “MIC (µM) in LB, S. Typhimurium Wild-Type” value [3] was > 50 µM, the “MIC A. baumannii (n=1)” value (A. baumannii) was > 50 µM and the “MIC (µM) in LB, S. Typhimurium Mutant” value [4] was 6.2 µM (≈ 4.41 µg/mL). The IC50 (HEK-293FT) was > 50 µM, the “MIC P. aeruginosa (n=3)” value (P. aeruginosa) was > 50 µM and the “MIC K. pneumoniae (n=2)” value (K. pneumoniae) was > 50 µM. The “MIC (µM) in LB, E. coli Wild-Type” value [5] was > 50 µM, the IC50 (RAW 264.7) was > 50 µM and the CM depolarization (E. coli 25922 [6]) was “interact with the CM to the point of inducing its depolarization”. The “MIC E. coli (n=4)” value (E. coli) was ≥ 50 µM.

In the case of Polymyxin B [reference compound], the “CM depolarization (trans-membrane potential)” value (E. coli 25922 [7]) is reported as “rapid CM-depolarization”, the “MIC (µM) in LB, S. Typhimurium Wild-Type” value [8] is reported as 0.7 µM and the “MIC (µM) in LB, S. Typhimurium Mutant” value [9] is reported as 0.7 µM. For the same compound, the “reduction of NPN fluorescence by 10 mM MgCl2” value (E. coli 25922 [10]) was “much less”, the “MIC (µM) in LB, E. coli Mutant” value (E. coli Ag100a (ΔacrAB) [11]) was 0.7 µM and the “MIC (µM) in LB, E. coli Wild-Type” value [12] was 0.7 µM.

In the case of polymyxin B nonapeptide [PMBN], the “effect of sub-inhibitory concentrations on bacterial growth in absence of antibiotics” value (E. coli 25922 [13]) is listed as “transiently inhibited bacterial growth”.
